Experiment [1] has as its target T1, integrin α4β7 (Homo sapiens, UniProt P13612+P26010).
T1 construct: lymphoma cell strain RPMI-8866 of human B cells, known to express integrin α4β7; endogenous in cells; host or cells: RPMI-8866, human B-cell lymphoma line
T1 sequence (P13612 34-1032): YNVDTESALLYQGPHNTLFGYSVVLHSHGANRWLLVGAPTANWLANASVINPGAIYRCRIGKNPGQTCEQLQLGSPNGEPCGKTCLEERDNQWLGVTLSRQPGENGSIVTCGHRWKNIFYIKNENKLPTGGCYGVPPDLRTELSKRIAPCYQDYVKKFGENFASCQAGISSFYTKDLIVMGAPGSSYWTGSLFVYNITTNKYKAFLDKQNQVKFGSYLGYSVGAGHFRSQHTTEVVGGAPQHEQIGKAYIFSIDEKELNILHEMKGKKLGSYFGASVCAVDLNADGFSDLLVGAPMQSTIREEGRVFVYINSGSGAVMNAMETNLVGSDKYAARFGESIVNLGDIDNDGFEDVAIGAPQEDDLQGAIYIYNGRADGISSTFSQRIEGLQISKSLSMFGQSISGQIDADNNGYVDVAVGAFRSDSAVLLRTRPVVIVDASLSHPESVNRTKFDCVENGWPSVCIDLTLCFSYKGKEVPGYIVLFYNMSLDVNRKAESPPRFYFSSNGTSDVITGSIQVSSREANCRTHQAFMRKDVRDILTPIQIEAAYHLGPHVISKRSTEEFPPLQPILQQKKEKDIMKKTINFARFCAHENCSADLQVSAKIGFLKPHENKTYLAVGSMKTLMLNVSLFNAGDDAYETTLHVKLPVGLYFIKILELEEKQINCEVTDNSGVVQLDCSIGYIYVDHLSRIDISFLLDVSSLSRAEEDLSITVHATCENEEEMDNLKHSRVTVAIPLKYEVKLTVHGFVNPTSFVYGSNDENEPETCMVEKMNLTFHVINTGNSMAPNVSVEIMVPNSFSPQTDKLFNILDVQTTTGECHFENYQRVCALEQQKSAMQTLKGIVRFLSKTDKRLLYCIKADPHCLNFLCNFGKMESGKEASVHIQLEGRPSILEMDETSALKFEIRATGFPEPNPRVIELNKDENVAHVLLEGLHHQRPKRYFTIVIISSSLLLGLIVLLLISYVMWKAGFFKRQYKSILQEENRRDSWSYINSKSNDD
T1 sequence (P26010 20-798): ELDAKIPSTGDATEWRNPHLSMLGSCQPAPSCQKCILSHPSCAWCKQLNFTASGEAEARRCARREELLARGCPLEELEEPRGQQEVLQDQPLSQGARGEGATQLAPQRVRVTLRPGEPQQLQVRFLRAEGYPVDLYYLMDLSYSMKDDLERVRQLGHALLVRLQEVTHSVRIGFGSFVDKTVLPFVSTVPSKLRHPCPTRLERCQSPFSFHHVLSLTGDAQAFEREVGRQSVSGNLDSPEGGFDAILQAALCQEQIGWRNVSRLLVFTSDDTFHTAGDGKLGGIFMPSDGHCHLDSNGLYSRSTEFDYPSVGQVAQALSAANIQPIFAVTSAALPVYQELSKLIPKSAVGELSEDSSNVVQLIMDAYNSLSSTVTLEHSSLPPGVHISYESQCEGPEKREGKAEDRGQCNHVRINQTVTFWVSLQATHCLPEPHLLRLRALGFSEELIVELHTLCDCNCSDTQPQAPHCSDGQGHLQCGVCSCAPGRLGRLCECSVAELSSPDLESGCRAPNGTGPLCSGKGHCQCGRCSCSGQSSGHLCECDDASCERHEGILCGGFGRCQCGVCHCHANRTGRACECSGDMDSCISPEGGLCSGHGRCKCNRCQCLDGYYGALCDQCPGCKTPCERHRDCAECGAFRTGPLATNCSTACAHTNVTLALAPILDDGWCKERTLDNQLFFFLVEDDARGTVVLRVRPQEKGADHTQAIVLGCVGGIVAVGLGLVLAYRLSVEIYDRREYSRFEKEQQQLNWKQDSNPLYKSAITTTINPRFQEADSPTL
Kind of experiment: VCAM antagonistic activity (VCAM-1/α4β7 binding assay), RPMI-8866 cells binding to VCAM-1. In kind it is cell-based. Particulars: RPMI-8866 cells binding to recombinant human VCAM-1, binding buffer containing 4 mM MnCl2, 30 minutes at room temperature. The procedure: VCAM Antagonistic Activity (VCAM-1/α4β7 Binding Assay)
The capacity of a test substance antagonistic to the binding of lymphoma cell strain RPMI-8866 of human B cells, known to express integrin α4β7, to VCAM-1 was determined.
(§1) 100 μl/well of a solution (500 ng/ml) of recombinant human VCAM-1 (R & D systems) solution diluted with buffer A (0.1 M NaHCO3, pH 9.6) was added to a micro titer plate having 96 wells (Nunc Maxisorp). After the incubation at 4° C. overnight, unbound VCAM-1 was removed by washing once with PBS. After completion of the washing, a buffer (buffer B) obtained by diluting Block Ace (Dainippon Pharmaceutical Co., Ltd.) with PBS to ¼ concentration was added in an amount of 150 μl/well. After the incubation at room temperature for 1 hour, buffer B was removed and the plate was washed with PBS once.
RPMI-8866 cells were incubated in Dulbecco modified Eagle medium containing 10 μg/ml of Calcein-AM (Wako Pure Chemical Industries, Ltd.) (SIGMA, hereinafter referred to as “DMEM”) at 37° C. for 30 minutes to label with fluorescence. The cells were again suspended in a binding buffer (20 mM HEPES, DMEM containing 0.1% BSA) containing 4 mM of MnCl2.
(§2) 50 μl of a test substance of various concentrations obtained by the dilution with the binding buffer was added to the plate. Immediately thereafter, 50 μl (final volume: 100 μl/well) of the fluorescent RPMI-8866 cells (4×10^6 cells/ml) were added thereto, and they were incubated at room temperature for 30 minutes. After the shaking on a plate shaker (IKA MTS-4) at 800 rpm for 30 seconds, the solution was immediately removed to remove the unbound cells. The fluorescence quantity of the bound cells remaining in the wells was determined with a fluorescent plate reader (Wallac 1420 ARVO multi-label counter) (filter excitation wave length: 485 nm, emission wave length: 535 nm). The fluorescent strength thus obtained is proportional to the number of RPMI-8866 cells bound to VCAM-1 and remaining on the plate. The binding rate of each test material in various concentrations was determined while the fluorescent strength of the test material-free well was determined to be 100%. The concentration IC50 for the 50% binding inhibition was calculated.

The target in experiment [2] is T2, integrin α4β1 (Homo sapiens, UniProt P05556+P13612).
T2 construct: cell strain Jurkat (ATCC TIB-152) of human T cells, known to express integrin α4β1; endogenous in cells; host or cells: Jurkat (ATCC TIB-152), human T cells
Kind of experiment: VCAM antagonist activity (VCAM-1/α4β1 binding assay), Jurkat cells binding to VCAM-1. In kind it is cell-based. As to conditions: Jurkat cells binding to recombinant human VCAM-1, 30 minutes at room temperature; read-out: VCAM antagonistic activity IC50, α4β1. The procedure:
VCAM Antagonist Activity (VCAM-1/α4β1 Binding Assay)
The capacity of a test substance antagonistic to the binding of cell strain Jurkat (ATCC TIB-152) of human T cells, known to express integrin α4β1, to VCAM-1 was determined.
as §1
Jurkat cells were washed with Dulbecco modified Eagle medium (SIGMA, hereinafter referred to as “DMEM”) twice and then incubated in DMEM containing 10 μg/ml of Calcein-AM (Wako Pure Chemical Industries, Ltd.) at 37° C. in dark place for 30 minutes to label with fluorescence. The cells were again suspended in a binding buffer (20 mM HEPES, DMEM containing 0.1% BSA).
as §2, with “Jurkat” for “RPMI-8866”

The structures appear in SMILES notation.

By IC50 is commonly meant the midpoint of a concentration-inhibition curve.

T2 sequence (P05556 21-798, one chain of several): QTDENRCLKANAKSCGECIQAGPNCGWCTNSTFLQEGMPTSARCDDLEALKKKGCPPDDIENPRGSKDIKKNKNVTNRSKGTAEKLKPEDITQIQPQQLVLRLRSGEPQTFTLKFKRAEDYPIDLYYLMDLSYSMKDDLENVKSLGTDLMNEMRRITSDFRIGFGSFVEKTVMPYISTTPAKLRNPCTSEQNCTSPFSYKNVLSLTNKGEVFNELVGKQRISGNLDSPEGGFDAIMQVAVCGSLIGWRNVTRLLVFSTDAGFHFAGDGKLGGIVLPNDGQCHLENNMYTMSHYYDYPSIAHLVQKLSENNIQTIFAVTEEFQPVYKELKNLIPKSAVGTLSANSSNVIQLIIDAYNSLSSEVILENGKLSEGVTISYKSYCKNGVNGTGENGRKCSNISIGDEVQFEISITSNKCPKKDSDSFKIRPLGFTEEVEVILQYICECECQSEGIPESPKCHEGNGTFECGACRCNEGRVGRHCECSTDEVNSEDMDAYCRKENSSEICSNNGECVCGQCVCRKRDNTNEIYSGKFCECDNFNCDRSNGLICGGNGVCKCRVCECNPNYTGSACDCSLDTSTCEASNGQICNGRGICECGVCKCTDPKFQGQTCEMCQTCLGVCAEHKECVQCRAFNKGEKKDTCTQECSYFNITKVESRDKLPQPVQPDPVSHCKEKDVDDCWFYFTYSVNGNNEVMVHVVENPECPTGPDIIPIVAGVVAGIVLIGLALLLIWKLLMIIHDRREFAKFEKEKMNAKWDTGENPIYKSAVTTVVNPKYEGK

For `Cn1c(=O)c(-c2ccc(C[C@H](NC(=O)c3c(Cl)ccnc3Cl)C(=O)O)cc2)cc2ccccc21` [Example 19], the IC50 in experiment [1] was found to be 11 nM; in experiment [2], 290 nM.
For `CCCc1c(-c2ccc(C[C@H](NC(=O)c3c(Cl)cccc3Cl)C(=O)O)cc2)c(=O)n(C)c2ccccc12` [Example 45], the figures for the IC50 in experiment [1] and in experiment [2] were 7.3 nM and 37 nM, respectively.
On the same counts, the results for `Cn1c(=O)c(-c2ccc(C[C@H](NC(=O)c3c(Cl)cccc3Cl)C(=O)O)cc2)cc2cc([N+](C)(C)C)ccc21` [Example 14] are 3.3 nM and 150 nM.
On the same counts, the results for `Cc1c(-c2ccc(C[C@H](NC(=O)c3c(Cl)cccc3Cl)C(=O)O)cc2)c(=O)n(C)c2ccccc12` [Example 42] are 4.1 nM and 52 nM.
For `CCn1c(=O)c(-c2ccc(C[C@H](NC(=O)c3c(Cl)cccc3Cl)C(=O)O)cc2)c(C)c2ccccc21` [Example 43] the same measures were 10 nM and 178 nM.
As to `CCC(CC)(C(=O)N[C@@H](Cc1ccc(-c2cc3ccccc3n(C)c2=O)cc1)C(=O)O)C(=O)N1CCCC1` [Example 8, (2S)-2-[[2-ethyl-2-(1-pyrrolidinecarbonyl)butanoyl]amino]-3-[4-(1-methyl-2-oxo-1,2-dihydro-3-quinolinyl)phenyl]propionic acid], the IC50 was 18 nM in experiment [1] and 320 nM in experiment [2].
On the same counts, the results for `Cn1c(=O)c(-c2ccc(C[C@H](NC(=O)c3c(Cl)cccc3Cl)C(=O)O)cc2)cc2cc(S(C)(=O)=O)ccc21` [Example 30] are 3.9 nM and 64 nM.
On the same counts, the results for `Cn1c(=O)c(-c2ccc(C[C@H](NC(=O)c3c(Cl)cccc3Cl)C(=O)O)cc2)cc2cc(O)ccc21` [Example 33] are 21 nM and 255 nM.
For `Cn1c(=O)c(-c2ccc(C[C@H](NC(=O)c3c(Cl)cccc3Cl)C(=O)O)cc2)cc2ccccc21` [Example 1, (2S)-2-[(2,6-dichlorobenzoyl)amino]-3-[4-(1-methyl-2-oxo-1,2-dihydro-3-quinolinyl)phenyl]propionic acid] the same measures were 90 nM and 620 nM.
Regarding `Cn1c(=O)c(-c2ccc(C[C@H](NC(=O)c3c(Cl)cc(NS(C)(=O)=O)cc3Cl)C(=O)O)cc2)cc2ccccc21` [Example 31], the half-maximal inhibitory concentration (IC50) in experiment [1] stood at 3 nM; in experiment [2], 47 nM.
With `CC1CN(c2ccc(C[C@H](NC(=O)c3c(Cl)cccc3Cl)C(=O)O)cc2)C(=O)c2ccccc21` (some centres unmarked) [Example 46], the IC50 in experiment [1] came out at 67 nM.
With `COc1c(-c2ccc(C[C@H](NC(=O)c3c(Cl)cccc3Cl)C(=O)O)cc2)c(=O)n(C)c2ccc(Cl)cc12` [Example 44], the IC50 in experiment [1] stood at 11 nM; in experiment [2], 168 nM.
On to `O=C(N[C@@H](Cc1ccc(-n2ncc3ccccc3c2=O)cc1)C(=O)O)c1c(Cl)cccc1Cl` [Example 21], for which the half-inhibitory concentration (IC50) was 2.4 nM in experiment [1] and 190 nM in experiment [2].
For `CCOc1c(-c2ccc(C[C@H](NC(=O)c3c(Cl)cccc3Cl)C(=O)O)cc2)c(=O)n(C)c2ccccc12` [Example 41] the same measures were 4.5 nM and 74 nM.
For `COc1c(-c2ccc(C[C@H](NC(=O)c3c(Cl)cccc3Cl)C(=O)O)cc2)c(=O)n(C)c2ccccc12` [Example 6, (2S)-2-[(2,6-dichlorobenzoyl)amino]-3-[4-(4-methoxy-1-methyl-2-oxo-1,2-dihydro-3-quinolinyl)phenyl]propionic acid] the same measures were 3.5 nM and 44 nM.
`O=C(N[C@@H](Cc1ccc(N2C(=O)c3cccc(=O)n3C2=O)cc1)C(=O)O)c1c(Cl)cccc1Cl` [Example 22]: in experiment [1], the IC50 was 150 nM.
For `O=C(N[C@@H](Cc1ccc(N2Cc3ccccc3CC2=O)cc1)C(=O)O)c1c(Cl)cccc1Cl` [Example 47], in experiment [1], the IC50 was 97 nM.
Same read-out and setting: then `CCC(CC)(C(=O)N[C@@H](Cc1ccc(N2C(=O)c3cccc(C)c3C2=O)cc1)C(=O)O)C(=O)N1CCCC1` [Example 26], with 44 nM.
For `CCCOc1c(-c2ccc(C[C@H](NC(=O)c3c(Cl)cccc3Cl)C(=O)O)cc2)c(=O)n(C)c2ccccc12` [Example 40], the IC50 in experiment [1] amounted to 6.5 nM; in experiment [2] it was 115 nM.
As to `Cc1cn(-c2ccc(C[C@H](NC(=O)c3c(Cl)cccc3Cl)C(=O)O)cc2)c(=O)c2ccccc12` [Example 23], the IC50 in experiment [1] came to 35 nM.
